Assay in all cases: in-line probing
What all share (settings): 20 mM MgCl2, 100 mM KCl, 50 mM Tris-HCl pH 8.3, 28 °C, 42-48 h, apparent

In test [1] the test system is aptamer 2 (c-di-GMP-I riboswitch aptamer, cluster 2) (RNA, riboswitch) GUCGUGAAGAAGCCACACCCCGGGCGACCGGGGGCCGGAAAGCCGCGGGUCUCAGCAGAGACGGCCGGGUUGCCACCAGAC
Test [2] deals with aptamer 3 (c-AMP-GMP riboswitch aptamer, cluster 3) (RNA, riboswitch) GCCGUGAAAAAACCACACCUCGGGCGACCGGGGGCCGGAAAGCCGCGGGUCUCAAAGGAGAUGGCCGGGUUGCCAGAAGGC
The test system of test [3] is aptamer 1 (c-di-GMP-I riboswitch aptamer, cluster 1) (RNA, riboswitch) GUCGUGAACAAGCCACACCCCGGGCGACCGGGGGCCGGAAAGCCGCGGGUCUCAGCAGAGACGGCCGGGUUGCCACCAGGC

Consider `Nc1nc2c(ncn2[C@@H]2O[C@@H]3COP(=O)(O)O[C@H]4[C@@H](O)[C@H](n5cnc6c(=O)[nH]c(N)nc65)O[C@@H]4COP(=O)(O)O[C@H]3[C@H]2O)c(=O)[nH]1`, for which the KD in test [1] (Hill coefficient fixed at 1) is ~ 77 nM; in test [2] (Hill coefficient fixed at 1), ~ 100 nM; in test [3] (Hill coefficient fixed at 1), ~ 20 nM.
In the case of `Nc1nc2c(ncn2[C@@H]2O[C@@H]3COP(=O)(O)O[C@H]4[C@@H](O)[C@H](n5cnc6c(N)ncnc65)O[C@@H]4COP(=O)(O)O[C@H]3[C@H]2O)c(=O)[nH]1`, the KD in test [1] (Hill coefficient fixed at 1, micro sign lost in text layer ("25 M")) was ~ 25 µM; in test [2] (Hill coefficient fixed at 1, micro sign lost in text layer ("1 M")), ~ 1 µM; in test [3] (Hill coefficient fixed at 1, micro sign lost in text layer ("34 M")) it was ~ 34 µM.

The values above are taken from publication PMC9481103 (2022).
